# Data as given in patent publication US20250114460A1, “NOVEL PLK1 DEGRADATION INDUCING COMPOUND” (UPPTHERA, INC., priority 2021, published 2025).
# Experiments:
# Assay type in all cases: cell-based
# PLK1 = molecular target: T1, PLK1 (Homo sapiens, UniProt P53350); assay: Luciferase assay for PLK1 in HeLa LgBit (Plk1-HiBit KI) cell line; details: 300 nM compound, luminescence after 9 hours
# T1 construct: endogenous in cells; host or cells: HeLa LgBit (Plk1-HiBit KI): HeLa stably expressing LgBit, with a CRISPR/Cas9 knock-in of HiBit at the endogenous PLK1 locus
# T1 sequence (P53350 whole entry): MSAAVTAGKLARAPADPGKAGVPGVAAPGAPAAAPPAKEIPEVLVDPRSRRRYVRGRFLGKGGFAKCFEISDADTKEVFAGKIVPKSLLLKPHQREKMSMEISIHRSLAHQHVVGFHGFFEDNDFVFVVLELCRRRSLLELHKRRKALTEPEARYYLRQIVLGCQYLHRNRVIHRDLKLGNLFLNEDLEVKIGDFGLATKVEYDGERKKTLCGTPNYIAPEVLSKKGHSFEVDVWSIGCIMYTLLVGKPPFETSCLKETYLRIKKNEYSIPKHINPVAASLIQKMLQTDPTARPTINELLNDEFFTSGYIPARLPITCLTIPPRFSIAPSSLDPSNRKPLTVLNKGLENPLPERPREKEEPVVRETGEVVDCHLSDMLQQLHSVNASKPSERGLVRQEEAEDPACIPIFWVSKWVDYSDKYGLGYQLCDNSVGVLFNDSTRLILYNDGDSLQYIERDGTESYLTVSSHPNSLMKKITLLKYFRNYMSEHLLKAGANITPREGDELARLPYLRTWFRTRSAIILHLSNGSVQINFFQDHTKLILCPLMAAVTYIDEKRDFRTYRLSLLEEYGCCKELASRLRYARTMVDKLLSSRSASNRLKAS
# Procedure, shortened: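 HeLa cells stably expressing LgBit, with HiBit knocked in at the C-terminus of endogenous Plk1, released from a 24 h 2 mM thymidine block and grown 18 h. Endurazine added, then compound at 300 nM; luminescence tracked in real time, expressed as ratio to DMSO.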
# NCI-H526 cell line = assay: Cell viability assay for H526 cell (EZ-Cytox); details: Homo sapiens, NCI-H526, 120 h; H526 cells, 5 days, 3000 nM to 0.46 nM
# Procedure, shortened: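 NCI-H526 cells were exposed to compound in CO2 incubator culture for 5 days. Viability was read by EZ-Cytox absorbance at 450 nm after 3 min shaking, giving IC50 values.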
# MRC-5 cell line = assay: Cell viability assay for MRC-5 cell line (EZ-Cytox); details: Homo sapiens, MRC5, 120 h; MRC-5 normal cell line, 5 days, 10000 nM to 1.52 nM; N.D. = no cytotoxicity until 10 μM; read-out: Activity: IC50 value of Exemplary Compound to MRC-5 cell line
# Procedure: 4. Cell Viability Assay for MRC-5 Cell Line
# (1) Culture of MRC-5 Cell Line
# Passage of cultured cells was maintained within P15.
# (2) Treatment of Compounds of the Present Invention
# Then, it was cultured in 37° C.
# (3) Cytotoxicity Experiment
# CO2 incubator for 4 hours.
SMILES,Activity: ratio of the luminescense value of each Exemplary Compound treatment group to DMSO treatment group (PLK1),IC50 (NCI-H526 cell line),IC50 (MRC-5 cell line)
"COc1cc(C(=O)NC2CCN(C(=O)CC3CN(c4ccc5c(c4)C(=O)N(C4CCC(=O)NC4=O)C5=O)C3)CC2)c(F)cc1Nc1ncc2c(n1)N(C1CCCC1)CC(F)(F)C(=O)N2C (stereo not drawn) [Compound 205, 4-((9-cyclopentyl-7,7-difluoro-5-methyl-6-oxo-6,7,8,9-tetrahydro-5H-pyrimido[4,5-b][1,4]diazepin-2-yl)amino)-N-(1-(2-(1-(2-(2,6-dioxopiperidin-3-yl)-1,3-dioxoisoindolin-5-yl)azetidin-3-yl)acetyl)piperidin-4-yl)-2-fluoro-5-methoxybenzamide]",++ (++<0.6),< 0.05 µM,> 10 µM
"COc1cc(C(=O)NC2CCN(C3CC4(CCN(c5cccc6c5C(=O)N(C5CCC(=O)NC5=O)C6=O)CC4)C3)CC2)c(F)cc1Nc1ncc2c(n1)N(C1CCCC1)CC(F)(F)C(=O)N2C (stereo not drawn) [Compound 208, 4-((9-cyclopentyl-7,7-difluoro-5-methyl-6-oxo-6,7,8,9-tetrahydro-5H-pyrimido[4,5-b][1,4]diazepin-2-yl)amino)-N-(1-(7-(2-(2,6-dioxopiperidin-3-yl)-1,3-dioxoisoindolin-4-yl)-7-azaspiro[3.5]nonan-2-yl)piperidin-4-yl)-2-fluoro-5-methoxybenzamide]",++ (++<0.6),< 0.1 µM,> 10 µM
"COc1cc(C(=O)NN2CCC(N3CC4(CCN(c5cccc6c5C(=O)N(C5CCC(=O)NC5=O)C6=O)CC4)C3)CC2)ccc1Nc1ncc2c(n1)N(C(C)C)CC(F)(F)C(=O)N2C (stereo not drawn) [Compound 213, 4-((7,7-difluoro-9-isopropyl-5-methyl-6-oxo-6,7,8,9-tetrahydro-5H-pyrimido[4,5-b][1,4]diazepin-2-yl)amino)-N-(4-(7-(2-(2,6-dioxopiperidin-3-yl)-1,3-dioxoisoindolin-4-yl)-2,7-diazaspiro[3.5]nonan-2-yl)piperidin-1-yl)-3-methoxybenzamide]",++ (++<0.6),< 0.03 µM,> 10 µM
"COc1cc(C(=O)N2CCC(N3CC4(CCN(c5cc6c(cc5F)C(=O)N(C5CCC(=O)NC5=O)C6=O)CC4)C3)CC2)ccc1Nc1ncc2c(n1)N(C(C)C)CC(F)(F)C(=O)N2C (stereo not drawn) [Compound 215, 5-(2-(1-(4-((7,7-difluoro-9-isopropyl-5-methyl-6-oxo-6,7,8,9-tetrahydro-5H-pyrimido[4,5-b][1,4]diazepin-2-yl)amino)-3-methoxybenzoyl)piperidin-4-yl)-2,7-diazaspiro[3.5]nonan-7-yl)-2-(2,6-dioxopiperidin-3-yl)-6-fluoroisoindoline-1,3-dione]",++ (++<0.6),< 0.4 µM,16.2 µM
"COc1cc(C(=O)NN2CCC(N3CC4(CCN(c5cc6c(cc5F)C(=O)N(C5CCC(=O)NC5=O)C6=O)CC4)C3)CC2)ccc1Nc1ncc2c(n1)N(C(C)C)CC(F)(F)C(=O)N2C (stereo not drawn) [Compound 216, 4-((7,7-difluoro-9-isopropyl-5-methyl-6-oxo-6,7,8,9-tetrahydro-5H-pyrimido[4,5-b][1,4]diazepin-2-yl)amino)-N-(4-(7-(2-(2,6-dioxopiperidin-3-yl)-6-fluoro-1,3-dioxoisoindolin-5-yl)-2,7-diazaspiro[3.5]nonan-2-yl)piperidin-1-yl)-3-methoxybenzamide]",++ (++<0.6),< 0.2 µM,27 µM
"COc1cc(C(=O)NN2CCC(N3CC4(CCN(c5ccc6c(c5)CN(C5CCC(=O)NC5=O)C6=O)CC4)C3)CC2)ccc1Nc1ncc2c(n1)N(C(C)C)CC(F)(F)C(=O)N2C (stereo not drawn) [Compound 219, 4-((7,7-difluoro-9-isopropyl-5-methyl-6-oxo-6,7,8,9-tetrahydro-5H-pyrimido[4,5-b][1,4]diazepin-2-yl)amino)-N-(4-(7-(2-(2,6-dioxopiperidin-3-yl)-1-oxoisoindolin-5-yl)-2,7-diazaspiro[3.5]nonan-2-yl)piperidin-1-yl)-3-methoxybenzamide]",++ (++<0.6),< 0.03 µM,13 µM

# More lines, main results first:
Activity: ratio of the luminescense value of each Exemplary Compound treatment group to DMSO treatment group (PLK1),SMILES,IC50 (NCI-H526 cell line),IC50 (MRC-5 cell line)
++ (++<0.6),"COc1cc(C(=O)NN2CCC(N3CC4(CCN(c5cccc6c5C(=O)N(C5CCC(=O)NC5=O)C6=O)CC4)C3)CC2)c(F)cc1Nc1ncc2c(n1)N(C1CCCC1)CC(F)(F)C(=O)N2C (stereo not drawn) [Compound 209, 4-((9-cyclopentyl-7,7-difluoro-5-methyl-6-oxo-6,7,8,9-tetrahydro-5H-pyrimido[4,5-b][1,4]diazepin-2-yl)amino)-N-(4-(7-(2-(2,6-dioxopiperidin-3-yl)-1,3-dioxoisoindolin-4-yl)-2,7-diazaspiro[3.5]nonan-2-yl)piperidin-1-yl)-2-fluoro-5-methoxybenzamide]",< 0.05 µM,5.31 µM
++ (++<0.6),"COc1cc(C(=O)NN2CCC(N3CC4(CCN(c5cccc6c5C(=O)N(C5CCC(=O)NC5=O)C6=O)CC4)C3)CC2)c(F)cc1Nc1ncc2c(n1)N(C(C)C)CC(F)(F)C(=O)N2C (stereo not drawn) [Compound 210, 4-((7,7-difluoro-9-isopropyl-5-methyl-6-oxo-6,7,8,9-tetrahydro-5H-pyrimido[4,5-b][1,4]diazepin-2-yl)amino)-N-(4-(7-(2-(2,6-dioxopiperidin-3-yl)-1,3-dioxoisoindolin-4-yl)-2,7-diazaspiro[3.5]nonan-2-yl)piperidin-1-yl)-2-fluoro-5-methoxybenzamide]",< 0.05 µM,18.2 µM
+++ (+++: <0.3),"COc1cc(C(=O)NN2CCC(N3CC4(CCN(c5cccc6c5C(=O)N(C5CCC(=O)NC5=O)C6=O)CC4)C3)CC2)ccc1Nc1ncc2c(n1)N(C1CCCC1)CC(F)(F)C(=O)N2C (stereo not drawn) [Compound 211, 4-((9-cyclopentyl-7,7-difluoro-5-methyl-6-oxo-6,7,8,9-tetrahydro-5H-pyrimido[4,5-b][1,4]diazepin-2-yl)amino)-N-(4-(7-(2-(2,6-dioxopiperidin-3-yl)-1,3-dioxoisoindolin-4-yl)-2,7-diazaspiro[3.5]nonan-2-yl)piperidin-1-yl)-3-methoxybenzamide]",< 0.03 µM,> 10 µM
++ (++<0.6),"COc1cc(C(=O)NN2CCC(N3CC4(CCN(c5ccc6c(c5)C(=O)N(C5CCC(=O)NC5=O)C6=O)CC4)C3)CC2)ccc1Nc1ncc2c(n1)N(C1CCCC1)CC(F)(F)C(=O)N2C (stereo not drawn) [Compound 212, 4-((9-cyclopentyl-7,7-difluoro-5-methyl-6-oxo-6,7,8,9-tetrahydro-5H-pyrimido[4,5-b][1,4]diazepin-2-yl)amino)-N-(4-(7-(2-(2,6-dioxopiperidin-3-yl)-1,3-dioxoisoindolin-5-yl)-2,7-diazaspiro[3.5]nonan-2-yl)piperidin-1-yl)-3-methoxybenzamide]",< 0.03 µM,> 10 µM
++ (++<0.6),"COc1cc(C(=O)NN2CCC(N3CC4(CCN(c5cc6c(cc5F)C(=O)N(C5CCC(=O)NC5=O)C6=O)CC4)C3)CC2)c(F)cc1Nc1ncc2c(n1)N(C(C)C)CC(F)(F)C(=O)N2C (stereo not drawn) [Compound 217, 4-((7,7-difluoro-9-isopropyl-5-methyl-6-oxo-6,7,8,9-tetrahydro-5H-pyrimido[4,5-b][1,4]diazepin-2-yl)amino)-N-(4-(7-(2-(2,6-dioxopiperidin-3-yl)-6-fluoro-1,3-dioxoisoindolin-5-yl)-2,7-diazaspiro[3.5]nonan-2-yl)piperidin-1-yl)-2-fluoro-5-methoxybenzamide]",< 0.4 µM,16.4 µM
